Tests used:
Design in all cases: key: 0 = no effect, 10 = maximum effect; letter = response symbol
soybean [1] = experiment: Test A post-emergence; type: in vivo; conditions: 0.4 kg/ha
Text: (§1) The activity of these compounds was discovered in a number of greenhouse and field tests. The ratings are based on a numerical scale extending from 0=no effect, to 10=maximum effect. The accompanying descriptive symbols have the following meanings:
(§2) Seeds of crabgrass (Digitaria spp.), barnyardgrass (Echinochloa crusgalli), wild oats (Avena fatua), cassia (Cassia tora), morningglory (Ipomoea spp.), cocklebur (Xanthium spp.), sorghum, corn, soybean, rice, wheat and nutsedge tubers (Cyperus rotundus) were planted in a growth medium and treated preemergence with a nonphytotoxic solvent solution of the compounds of Table XII. Other batches of seeds and tubers for all of the foregoing weed and crop plants were planted at the same time as controls. The control plantings were untreated; i.e., neither any compound nor any solvent was applied. At the same time, cotton having five leaves (including cotyledonary ones), bush beans with the third trifoliate leaf expanding, crabgrass with two leaves, barnyardgrass with two leaves, wild oats with two leaves, cassia with three leaves (including cotyledonary ones), morningglory with four leaves (including the cotyledonary ones), cocklebur with four leaves (including the cotyledonary ones), sorghum with four leaves, corn with four leaves, soybean with two cotyledonary leaves, rice with three leaves, wheat with one leaf, and nutsedge with three-five leaves were sprayed with a nonphytotoxic solvent solution of the compounds of Table XII. Other groups of all the same weed and crop plants were sprayed with the same nonphytotoxic solvent so as to provide control plants. Preemergence and postemergence treated plants and controls were maintained in a greenhouse for sixteen days, then all treated plants were compared with their respective controls and rated visually for response to treatment.

wild oats [2] = experiment: Test A post-emergence; type: in vivo, Avena fatua; conditions: 0.4 kg/ha
Text: as §1, §2

cassia [3] = experiment: Test A post-emergence; type: in vivo, Cassia tora; conditions: 0.4 kg/ha
Text: as §1, §2

crabgrass [4] = experiment: Test A post-emergence; type: in vivo, Digitaria spp.; conditions: 0.4 kg/ha
Text: as §1, §2

barnyardgrass [5] = experiment: Test A post-emergence; type: in vivo, Echinochloa crusgalli; conditions: 0.4 kg/ha
Text: as §1, §2

nutsedge = experiment: Test A post-emergence; type: in vivo, Cyperus rotundus; conditions: 0.4 kg/ha
Text: as §1, §2

corn [6] = experiment: Test A post-emergence; type: in vivo; conditions: 0.4 kg/ha
Text: as §1, §2

wheat [7] = experiment: Test A post-emergence; type: in vivo; conditions: 0.4 kg/ha
Text: as §1, §2

morningglory [8] = experiment: Test A post-emergence; type: in vivo, Ipomoea spp.; conditions: 0.4 kg/ha
Text: as §1, §2

sorghum [9] = experiment: Test A post-emergence; type: in vivo; conditions: 0.4 kg/ha
Text: as §1, §2

bush bean = experiment: Test A post-emergence; type: in vivo, bush beans; conditions: 0.4 kg/ha
cocklebur [10] = experiment: Test A post-emergence; type: in vivo, Xanthium spp.; conditions: 0.4 kg/ha
Text: as §1, §2

morningglory [11] = experiment: Test A pre-emergence; type: in vivo, Ipomoea spp.
Text: as §1, §2

barnyardgrass [12] = experiment: Test A pre-emergence; type: in vivo, Echinochloa crusgalli
Text: as §1, §2

cocklebur [13] = experiment: Test A pre-emergence; type: in vivo, Xanthium spp.
Text: as §1, §2

crabgrass [14] = experiment: Test A pre-emergence; type: in vivo, Digitaria spp.
Text: as §1, §2

soybean [15] = experiment: Test A pre-emergence; type: in vivo
Text: as §1, §2

wheat [16] = experiment: Test A pre-emergence; type: in vivo
Text: as §1, §2

cassia [17] = experiment: Test A pre-emergence; type: in vivo, Cassia tora
Text: as §1, §2

sorghum [18] = experiment: Test A pre-emergence; type: in vivo
Text: as §1, §2

wild oats [19] = experiment: Test A pre-emergence; type: in vivo, Avena fatua; conditions: 0.4 kg/ha
Text: as §1, §2

corn [20] = experiment: Test A pre-emergence; type: in vivo
Text: as §1, §2

SMILES	response rating (soybean [1]) [C]	response rating (morningglory [11]; 0.4 kg/ha)	response rating (barnyardgrass [12]; 0.4 kg/ha) [H]	response rating (cocklebur [13]; 0.4 kg/ha)	response rating (crabgrass [14]; 0.4 kg/ha)	response rating (soybean [15]; 0.4 kg/ha) [H]	response rating (wheat [16]; 0.4 kg/ha)	response rating (cassia [17]; 0.4 kg/ha) [G]	response rating (sorghum [18]; 0.4 kg/ha)	response rating (wild oats [19])	further results
COC(=O)c1ccccc1S(=O)(=O)NC(=O)N(C)c1nc(C)cc(C)n1 [drawing 419]	3	–	–	–	–	–	–	–	–	–	response rating (wild oats [2]): 6C; response rating (cassia [3]): 2C; response rating (crabgrass [4]): 7G; response rating (barnyardgrass [5]): 9C; response rating (nutsedge): 7G
CCC(C)OC(=O)c1ccccc1S(=O)(=O)NC(=O)Nc1nc(OC)cc(OC)n1 (stereo not drawn) [drawing 423]	9	–	–	–	–	–	–	–	–	–	response rating (corn [6]): 9H; response rating (wheat [7]): 1C; response rating (wild oats [2]): 2C; response rating (morningglory [8]): 9C; response rating (crabgrass [4]): 2A; response rating (barnyardgrass [5]): 9C; response rating (nutsedge): 7G
COc1nc(C)nc(NC(=O)NS(=O)(=O)c2ccccc2C(=O)OC2CCCC2)n1 [drawing 445]	9	–	–	–	–	–	–	–	–	–	response rating (sorghum [9]): 8G; response rating (wheat [7]): 1C; response rating (bush bean): 8C; response rating (wild oats [2]): 1C; response rating (morningglory [8]): 10C; response rating (cocklebur [10]): 9C; response rating (crabgrass [4]): 1C; response rating (nutsedge): 7G
COc1cc(C)nc(NC(=O)NS(=O)(=O)c2ccccc2C(=O)OC2CCOC2)n1 (stereo not drawn) [drawing 446]	9	–	–	–	–	–	–	–	–	–	response rating (sorghum [9]): 9C; response rating (wheat [7]): 7C; response rating (bush bean): 9C; response rating (wild oats [2]): 7G; response rating (morningglory [8]): 9C; response rating (barnyardgrass [5]): 9C
CCCC(OC(=O)c1ccccc1S(=O)(=O)NC(=O)Nc1nc(C)nc(OC)n1)C(C)C (stereo not drawn) [drawing 458]	9	–	–	–	–	–	–	–	–	–	response rating (corn [6]): 9C; response rating (bush bean): 9C; response rating (cassia [3]): 9C; response rating (morningglory [8]): 10C; response rating (cocklebur [10]): 10C; response rating (crabgrass [4]): 3C; response rating (barnyardgrass [5]): 9C
COc1cc(C)nc(NC(=O)NS(=O)(=O)c2ccccc2C(=O)NC(C)C)n1 [drawing 463]	9	–	–	–	–	–	–	–	–	–	response rating (sorghum [9]): 9C; response rating (wild oats [2]): 9C; response rating (cassia [3]): 9C; response rating (morningglory [8]): 10C; response rating (cocklebur [10]): 9C; response rating (crabgrass [4]): 10C; response rating (barnyardgrass [5]): 9C; response rating (nutsedge): 9C
CCCCCCCCCCCCNC(=O)c1ccccc1S(=O)(=O)NC(=O)Nc1nc(C)nc(OC)n1 [drawing 467]	9	–	–	–	–	–	–	–	–	–	response rating (morningglory [8]): 9C; response rating (nutsedge): 9G
COC(=O)c1ccccc1S(=O)(=O)NC(=O)Nc1nc(C)cc(C)n1 [drawing 479]	–	9G	9	9G	9G	9	9H	8	–	–	response rating (morningglory [11]; 2 kg/ha): 9G; response rating (barnyardgrass [12]; 2 kg/ha): 9H; response rating (cocklebur [13]; 2 kg/ha): 9G; response rating (crabgrass [14]; 2 kg/ha): 9G; response rating (soybean [15]; 2 kg/ha): 9H; response rating (wheat [16]; 2 kg/ha): 9H; response rating (cassia [17]; 2 kg/ha): 9G
COC(=O)c1ccccc1S(=O)(=O)NC(=O)Nc1nc(C)nc(OC)n1 [drawing 482]	–	9H	9	9G	–	9	9H	9	9H	9H	–
CCC(C)OC(=O)c1ccccc1S(=O)(=O)NC(=O)Nc1nc(OC)cc(OC)n1 (stereo not drawn) [drawing 490]	–	9G	9	9G	0	8	2G	8	9G	8G	–
CCC(C)OC(=O)c1ccccc1S(=O)(=O)NC(=O)Nc1nc(C)cc(OC)n1 (stereo not drawn) [drawing 491]	–	9G	9	–	6G	9	9G	9	9H	–	–
COC(=O)c1cc(Cl)ccc1S(=O)(=O)NC(=O)Nc1nc(C)cc(OC)n1 [drawing 501]	–	9G	9	9H	–	9	8H	–	9H	9G	–
COC(=O)c1cc(Cl)ccc1S(=O)(=O)NC(=O)Nc1nc(OC)nc(OC)n1 [drawing 502]	–	9G	–	9G	1C	9	1C	–	9H	8G	–
COc1cc(OC)nc(NC(=O)NS(=O)(=O)c2ccccc2C(=O)OC(C)C)n1 [drawing 503]	–	9G	–	–	8G	–	7G	–	–	7G	–
COc1cc(C)nc(NC(=O)NS(=O)(=O)c2ccccc2C(=O)OC(C)C)n1 [drawing 504]	–	9H	–	–	8G	–	9G	–	–	8G	–
COc1nc(NC(=O)NS(=O)(=O)c2ccccc2C(=O)OC(C)C)nc(OC)n1 [drawing 505]	–	–	–	–	7G	–	7G	–	–	8G	–
CCOC(=O)c1ccccc1S(=O)(=O)NC(=O)Nc1nc(OC)cc(OC)n1 [drawing 508]	–	–	–	–	–	–	–	–	–	–	response rating (barnyardgrass [12]; 2 kg/ha): 9H; response rating (cocklebur [13]; 2 kg/ha): 9G; response rating (crabgrass [14]; 2 kg/ha): 9H; response rating (sorghum [18]; 2 kg/ha): 10H; response rating (soybean [15]; 2 kg/ha): 9H; response rating (wheat [16]; 2 kg/ha): 9H; response rating (cassia [17]; 2 kg/ha): 9G
CCOC(=O)c1ccccc1S(=O)(=O)NC(=O)Nc1nc(OC)cc(OC)n1 [drawing 509]	–	–	9	9G	–	9	9H	9	9H	9G	–
Cc1cc(C)nc(NC(=O)NS(=O)(=O)c2ccccc2C(=O)O)n1 [drawing 510]	–	–	–	–	–	–	–	–	–	–	response rating (corn [20]; 2 kg/ha): 3G
C=CCOC(=O)c1ccccc1S(=O)(=O)NC(=O)Nc1nc(C)nc(OC)n1 [drawing 518]	–	9G	9	9G	9H	9	9H	9	10H	–	–
COc1cc(C)nc(NC(=O)NS(=O)(=O)c2ccccc2C(=O)OCCOc2ccccc2)n1 [drawing 528]	–	9C	–	9G	–	9	9H	–	–	–	response rating (corn [20]; 0.4 kg/ha): 9G
COC(=O)c1ccccc1S(=O)(=O)NC(=O)Nc1nc(OC)nc(OCC(F)(F)F)n1 [drawing 540]	–	9G	–	9G	2G	9	6G	9	–	–	–
COc1cc(C)nc(NC(=O)NS(=O)(=O)c2ccccc2C(=O)OC(C)CCl)n1 (stereo not drawn) [drawing 545]	–	9G	–	9G	–	9	9H	9	–	–	response rating (corn [20]; 0.4 kg/ha): 9H

Source: patent US4383113A, “Agricultural sulfonamides” (E. I. Du Pont de Nemours and Company, priority 1981, dated 1983)
